Test results: the METLIN SMRT retention time set (Domingo-Almenara et al. 2019)

Experiment: gradient 5% acetonitrile 3 min, to 50% in 2 min, to 85% in 15 min, held 3 min, 100 µL/min
Settings: column: Zorbax Extend-C18 2.1 x 50 mm; eluents: water / acetonitrile, 0.1% formic acid
Summary of the method: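 The mobile phases were water and acetonitrile, each with 0.1% formic acid, pumped at 100 μL/min through a Zorbax Extend-C18 column (2.1 × 50 mm, 1.8 μm). Pure standards were injected as mixtures of ~100 molecules and detected by a quadrupole time-of-flight mass spectrometer in positive and negative ionization mode. Retention time came from computationally picked adduct peaks, each inspected by hand.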

COCCN1C(=O)c2ccccc2C(C(=O)NCc2ccccc2Cl)C12CCCC2 (configuration not stated)
RP-LC retention time: 905 s

COC(=O)C1=CN(c2ccc(Br)cc2)c2ccccc2S1(=O)=O
RP-LC retention time: 908 s

Cn1nc(CNC(=O)c2ccc(F)c(F)c2)c2ccccc21
RP-LC retention time: 813 s

Cn1c(=O)c(N2CCC(NC(=O)Nc3ccc(F)cc3F)CC2)nc2ccccc21
RP-LC retention time: 888 s

CCC(=O)N1CCc2cc(N3CC(C(=O)Nc4cc(C)ccc4C)CC3=O)ccc21 (configuration not stated)
RP-LC retention time: 790 s

Cc1cccc(N2C(=O)CN(Cc3ccccc3Cl)[C@H]3CS(=O)(=O)C[C@H]32)c1
RP-LC retention time: 917 s

COCCN1C(=O)CCc2cc(NC(=O)C3CCC3)ccc21
RP-LC retention time: 673 s

CC(C)C(=O)NCc1csc(C2CCN(C(=O)C3CCC3)CC2)n1
RP-LC retention time: 876 s

CC(=O)c1ccc(Nc2c(C(=O)N3CCCC3)cnc3nc(C)ccc23)cc1
RP-LC retention time: 584 s

Clc1cccc(-c2ccc(CNCCCn3ccnc3)o2)c1
RP-LC retention time: 588 s

CC(C)NC(=O)N1CCC(c2noc(-c3ccncc3)n2)C1 (configuration not stated)
RP-LC retention time: 626 s

CC(=O)N1CCc2cc(N3CC(C(=O)NCC(C)C)CC3=O)ccc21 (configuration not stated)
RP-LC retention time: 643 s

Brc1cccc(-c2nnc3sc(-c4ccncc4)nn23)c1
RP-LC retention time: 838 s

O=C(COc1ccc(F)cc1)NCC(=O)N1CCN(c2ccccn2)CC1
RP-LC retention time: 609 s

O=C(Nc1cnc(N2CCOCC2)c(C(=O)O)c1)c1ccc(Br)cc1
RP-LC retention time: 715 s

O=C(c1ccc(Cl)cc1)N1CCN(c2cc(-c3ccc(Cl)cc3)[nH]n2)CC1
RP-LC retention time: 936 s

Cc1cc(NC(=O)c2ccccc2)c(Cl)cc1N
RP-LC retention time: 797 s

CCN(CC)S(=O)(=O)c1ccc2c(c1)N(CC(=O)NCCCOC(C)C)C(=O)C1CCCCN21 (configuration not stated)
RP-LC retention time: 907 s

CCOc1ccc(NC(=O)Nc2nccn(-c3cccc(F)c3)c2=O)cc1
RP-LC retention time: 939 s

CNC(=O)c1cc[nH]c1C1CCCN(C(=O)c2cscn2)C1 (configuration not stated)
RP-LC retention time: 591 s

Cc1ccc(Nc2c(-c3cc(Br)ccc3F)nc3cccc(C)n23)cc1
RP-LC retention time: 814 s

O=C(NC1CCCCC1)c1nc(Nc2ccccc2)c2ccccc2n1
RP-LC retention time: 861 s

COc1ccc(CC(=O)N2C[C@@H]3C[C@H]2C[C@@H]3NS(=O)(=O)c2ccccc2)cc1
RP-LC retention time: 768 s

CNC(=O)N1CCCC(c2cccc(C(=O)N3CCN(c4ccc(Cl)cc4)CC3)c2)C1 (configuration not stated)
RP-LC retention time: 864 s

O=C1CCc2cc(NC(=O)c3cc(-c4ccccc4)nc4ccccc34)ccc2N1
RP-LC retention time: 818 s

COC(=O)c1c(NCCCc2ccccc2)c2cc(F)ccc2[nH]c1=O
RP-LC retention time: 848 s

CCN1CCN(CCCNC(=O)C2CCCN(c3nnc(-n4cccc4)s3)C2)CC1 (configuration not stated)
RP-LC retention time: 572 s

COc1ccccc1C(=O)N1CCCC1COc1ccc(C(=O)N2CCCC2)cc1 (configuration not stated)
RP-LC retention time: 784 s

COc1cccc(C(=O)Nc2nc3c(s2)CN(Cc2ccccc2)CC3)c1OC
RP-LC retention time: 585 s

FC(F)(F)c1nc2ccccc2n1CC1CCN(Cc2cn3ccccc3n2)CC1
RP-LC retention time: 557 s

CC(C)NC(=O)Cn1nc2c3cc(-c4ccc(Cl)cc4)nn3ccn2c1=O
RP-LC retention time: 823 s

Cc1cccc(N2CCN(C(=O)Cn3ccc4ccc(N5CCOCC5)nc43)CC2)c1C
RP-LC retention time: 1110 s

CCOC(=O)C1CCCN(C(=O)C2CCN(S(=O)(=O)c3ccc4c(c3)sc(=O)n4C)CC2)C1 (configuration not stated)
RP-LC retention time: 825 s

O=C(NCC1CC(=O)N(c2ccc3c(c2)OCO3)C1)C1CC1 (configuration not stated)
RP-LC retention time: 606 s

CCOc1cccc(Cn2c(=O)c3sccc3n(Cc3nc(-c4ccccc4C)no3)c2=O)c1
RP-LC retention time: 1190 s

Cc1nc(-c2cccnc2)nc2c1CCC(=O)N2Cc1ccccc1
RP-LC retention time: 766 s

CCc1ccccc1NS(=O)(=O)c1cc(-c2c(CC)noc2NC(C)=O)ccc1C
RP-LC retention time: 855 s
